According to publication PMC3638264 (Journal of Medicinal Chemistry, 2013):

Key:
[1] = molecular target: T1, AKR1C1 (Homo sapiens, UniProt Q04828); format: biochemical; settings: selectivity for AKR1C3 over AKR1C1
T1 sequence (Q04828 1-323): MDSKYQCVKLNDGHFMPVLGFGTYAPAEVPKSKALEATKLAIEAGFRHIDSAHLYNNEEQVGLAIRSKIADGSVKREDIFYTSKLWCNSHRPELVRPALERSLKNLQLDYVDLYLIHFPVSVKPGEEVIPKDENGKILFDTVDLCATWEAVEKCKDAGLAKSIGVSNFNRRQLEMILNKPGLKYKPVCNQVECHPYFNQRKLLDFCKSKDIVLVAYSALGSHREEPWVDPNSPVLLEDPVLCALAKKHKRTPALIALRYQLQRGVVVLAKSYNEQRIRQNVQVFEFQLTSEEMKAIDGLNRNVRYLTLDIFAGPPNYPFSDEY

[2] = molecular target: T2, AKR1C4 (Homo sapiens, UniProt P17516); format: biochemical; settings: selectivity for AKR1C3 over AKR1C4
T2 sequence (P17516 1-323): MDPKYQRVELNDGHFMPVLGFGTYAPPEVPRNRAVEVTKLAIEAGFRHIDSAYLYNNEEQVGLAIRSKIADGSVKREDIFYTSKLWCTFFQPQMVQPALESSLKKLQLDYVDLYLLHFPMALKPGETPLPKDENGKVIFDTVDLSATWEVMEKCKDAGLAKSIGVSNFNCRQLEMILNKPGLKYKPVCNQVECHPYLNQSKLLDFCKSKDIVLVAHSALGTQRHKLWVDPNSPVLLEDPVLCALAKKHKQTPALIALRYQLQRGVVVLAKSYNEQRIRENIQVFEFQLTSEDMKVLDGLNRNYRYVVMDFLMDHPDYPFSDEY

Compound: COc1ccc2c(c1)c(CC(=O)NS(=O)(=O)C(F)(F)F)c(C)n2C(=O)c1ccc(Cl)cc1 [Compound 15]
- IC50 ratio AKR1C1/AKR1C3 (value in parentheses) [1]: > 135
- IC50 ratio AKR1C4/AKR1C3 (value in parentheses) [2]: > 135
